The numbers were not newly measured in patent US8247571B2, “Pyridinium and thiazolium conjugates including polyethylene glycols and methods of using the same” (Mycosol, Inc., priority 2005, dated 2012), which cites them from elsewhere.

The data set has as its system roundworms, threadworms, and whipworms. Particulars: reported; U.S. Pat. Nos. 3,075,975 and 3,085,935.

For the molecule `CC[n+]1c(/C=C/c2ccc(N3CCCC3)cc2)cccc1/C=C/c1ccc(N2CCCC2)cc1.[I-]` [Stilbazium iodide], the anthelmintic effectiveness entry was “effective”.
